Key:
[1] = compared with mifepristone; reported in Human Reproduction 1994; cited from earlier work
[2] = reported in European Journal of Cancer 1999; cited from earlier work
[3] = tested on: Human mammary cancer cells MCF-7; assay: MTT test of killing tumor cells, MCF-7; type: cell-based; conditions: 4-6 days incubation
Description: (§1) Human mammary cancer cells (MCF-7, T47D, commercially available) were prepared as 1×10^4/ml cell suspension in RPMI 1640 medium containing 10% calf serum and used to inoculate a 96-well plate at 100 μl/well. The plate was incubated for 24 hours in an incubator in 5% CO2 at 37° C. Two experimental groups each receiving compound of formula (VI) or Mifepristone (commercially available) (triplicate well/group each receiving 100 μl RPMI 1640 medium containing various concentrations of drug) and a control group (each well receiving RPMI medium containing equal volume of solvent) were incubated for 4-6 days in an incubator in 5% CO2 at 37° C. The cultural supernatant was discarded and 0.04% 100 μl MTT prepared with RPMI 1640 was added into each well. Incubation was carried out at 37° C. for 4 hours. The supernatant was discarded and 150 μl dimethyl sulfoxide was added into each well to dissolve Fomazan particles. After being shaked slightly, OD value was measured using a Model 550 Enzyme Labelling Equipment at a wavelength of 540 nm. The rate of inhibition of cells was graphed against the various concentrations of the drug to produce a dosage response curve from which 50% inhibiting concentration IC50 was derived.

[4] = tested on: Human mammary cancer cells T47D; assay: MTT test of killing tumor cells, T47D; type: cell-based; conditions: 4-6 days incubation
Description: as §1

[5] = tested on: MNU-induced rat mammary cancer; assay: Inhibition of MNU-induced rat mammary cancer; type: in vivo, Sprague-Dawley rats; conditions: 30 days
Description: Sprague-Dawley rats which are 5-7 weeks old and weighing 90-120 g were treated with an amount of carcinogenic chemical (MNU, commercially available) to induce rat mammary cancer and were divided into a group with cancer-induction alone, a group with mifepristone and two treatment groups with the compound of formula (VI). Each group except for the group with cancer-induction alone was endogastrically administrated with corresponding dose one time per day. After 30 days, the animals were sacrificed by decapitation. Indices such as body weight and tumor weight of each group of the animals were compared. The mean value of the groups was calculated and the rate of tumor growth inhibition derived. Rate of tumor inhibition %=(mean value of the group with cancer-induction alone−mean value of the treatment group)/mean value of the group with cancer-induction alone×100%

[6] = tested on: pregnant rats, gravidity d7-9; assay: Effect in stopping early pregnancy in rats; type: in vivo, Sprague-Dawley rats; conditions: for early pregnancy-stopping effect: rats of gravidity d7-9
Description: Both sexes of Sprague-Dawley rats were placed into a cage and were allowed to copulate. […] Pregnant rats were randomly divided into 11 groups of 10. The control group was administrated with 0.5% CMC-Na solution. 6 Groups were administered with the compound of formula (VI) at doses of 2.0, 1.6, 1.28, 1.02, 0.82 and 0.66 mg/kg respecticely. 4 Groups were administered with Mifepristone at doses of 3.5, 2.45, 1.72 and 1.2 mg/kg respectively. The groups were administered endogastrically once a day (dose 2 ml/kg) for 3 consecutive days starting from gradivity d7. Animals in which ecolporrhagia was not detected and no signs of embryo implantation were found on dissection examination were considered as not pregnant and were not counted. The animals were sacrificed and laparotomized on gradivity d14 and the numbers of living embryos, dead embryos, implantation sites and yellow bodies in the uterus were counted. The number of the pregnant animals were counted and compared with that of the control group. ED50 of the two test drugs and its credibility interval was calculated with Bliss's method.

[7] = tested on: pregnant rats, gravidity d1-4; assay: Anti-implantation effect in rat; type: in vivo, Sprague-Dawley rats; conditions: endogastric once a day for 4 days from gravidity d1, Bliss's method
Description: Both sexes of Sprague-Dawley rats were placed into a cage and were allowed to copulate. […] Pregnant rats were randomly divided into 10 groups of 10. The control group was administered with 0.5% CMC-Na solution. 5 Groups were administered with the compound of formula (VI) and 4 groups were administered with Mifepristone. The groups were administered endogastrically once a day for 4 consecutive days starting from gradivity d1. The groups of animals were laparotomized on gradivity d14 and their uterus examined. The number of pregnant animals was counted. ED50 of the two drugs was calculated with Bliss's method.

[8] = target: T1, progesterone receptor in rabbit endometrium (Oryctolagus cuniculus, UniProt P06186); conditions: cited from earlier work
T1 construct: progesterone receptor in rabbit endometrium; host or cells: rabbit endometrium (tissue)
T1 sequence (P06186 1-930): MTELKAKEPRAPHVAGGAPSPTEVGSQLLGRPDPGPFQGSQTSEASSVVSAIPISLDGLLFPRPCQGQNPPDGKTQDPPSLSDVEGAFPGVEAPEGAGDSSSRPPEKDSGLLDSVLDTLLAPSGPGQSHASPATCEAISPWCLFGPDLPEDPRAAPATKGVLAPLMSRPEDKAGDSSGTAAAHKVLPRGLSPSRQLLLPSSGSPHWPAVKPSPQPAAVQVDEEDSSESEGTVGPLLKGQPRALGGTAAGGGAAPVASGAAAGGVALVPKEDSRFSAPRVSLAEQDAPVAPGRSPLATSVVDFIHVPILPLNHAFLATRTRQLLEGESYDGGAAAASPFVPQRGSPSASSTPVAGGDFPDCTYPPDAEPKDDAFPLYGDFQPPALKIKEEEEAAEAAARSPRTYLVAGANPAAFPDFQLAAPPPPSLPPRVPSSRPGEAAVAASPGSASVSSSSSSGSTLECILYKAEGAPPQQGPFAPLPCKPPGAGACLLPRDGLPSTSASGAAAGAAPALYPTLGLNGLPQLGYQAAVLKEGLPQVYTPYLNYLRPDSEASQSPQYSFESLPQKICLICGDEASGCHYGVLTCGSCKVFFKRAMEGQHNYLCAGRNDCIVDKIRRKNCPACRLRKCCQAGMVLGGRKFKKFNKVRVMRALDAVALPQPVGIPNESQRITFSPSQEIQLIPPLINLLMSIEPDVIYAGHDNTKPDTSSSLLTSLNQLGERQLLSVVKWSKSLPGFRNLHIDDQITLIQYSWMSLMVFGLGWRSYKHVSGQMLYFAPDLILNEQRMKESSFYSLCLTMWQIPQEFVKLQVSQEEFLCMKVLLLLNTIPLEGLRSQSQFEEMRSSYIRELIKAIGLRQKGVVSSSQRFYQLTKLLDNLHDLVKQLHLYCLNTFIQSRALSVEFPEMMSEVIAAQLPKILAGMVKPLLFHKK

CN(C)c1ccc([C@H]2C[C@@]3(C)[C@@H](CC[C@@]3(O)/C=C\CO)[C@@H]3CCC4=CC(=O)CCC4=C32)cc1 [Lilopristone, 11β-[4-(N,N-dimethylamino)phenyl]-17α-[3-hydroxy-1(Z)-propenyl]-17β-hydroxy-4,9-estradiene-3-one]
clinical effect in stopping early pregnancy [1]: only equivalent to that of mifepristone

CN(C)c1ccc([C@H]2C[C@]3(C)[C@@H](CC[C@]3(O)CCCO)[C@@H]3CCC4=CC(=O)CCC4=C32)cc1 [Onapristone, 11β-[4-(N,N-dimethylamino)phenyl]-17α-hydroxy-17β-(3-hydroxypropyl)-13α-4,9-estradiene-3-one]
toxicity to human liver [2]: had toxicity to human liver

CC#CC1(O)CCC2C3CCC4=CC(=O)CCC4=C3C(c3ccc(N(C)C4CCCCC4)cc3)CC21C (stereo not drawn) [compound of formula (VI), 11β-[4-(N-methyl-N-cyclohexylamino)phenyl]-17α-(1-propinyl)-17β-hydroxy-4,9-estradiene-3-one]
IC50 ([3]; MCF-7 cells): 5.5 ± 0.72 µM
IC50 [4]: 6.4 ± 3.15 µM
Inhibition (%) of tumor growth ([5]; 10 mg/kg endogastrically once per day): 50.4%
Inhibition (%) of tumor growth ([5]; 20 mg/kg endogastrically once per day): 89.3%
early pregnancy-stopping effect ([6]; 2 mg/kg/day): complete early pregnancy-stopping effect
ED50, early pregnancy-stopping effect ([6]; rats, endogastric once a day for 3 days from gravidity d7, Bliss's method, credibility interval in brackets): 1.1439 ± 0.1590 mg/kg
anti-implantation ED50 [7]: 2.3409 ± 0.6191 mg/kg

CC#C[C@]1(O)CC[C@H]2[C@@H]3CCC4=CC(=O)CCC4=C3[C@@H](c3ccc(N(C)C)cc3)C[C@@]21C [Mifepristone, 11β-[4-(N,N-dimethylamino)phenyl]-17α-(1-propinyl)-17β-hydroxy-4,9-estradiene-3-one]
IC50 ([3]; Homo sapiens, MCF7, MCF-7 cells): 10.8 ± 8.1 µM
IC50 ([4]; Homo sapiens): 11 ± 9.03 µM
Inhibition (%) of tumor growth ([5]; 40 mg/kg endogastrically once per day): 72.1%
early pregnancy-stopping effect ([6]; 3.5 mg/kg): complete early pregnancy-stopping effect
ED50 ([6]; Rattus norvegicus, 72 h, rats, endogastric once a day for 3 days from gravidity d7, Bliss's method, credibility interval in brackets): 2.12 ± 0.447 mg/kg
ED50 ([7]; Rattus norvegicus, 96 h): 6.69 ± 1.55 mg/kg
affinity with progesterone receptor compared with progesterone [8]: five-fold higher than that of progesterone

Source: patent US6514956B1, “Steroids, their preparation, pharmaceutical compositions thereof and uses of the compounds” (Shanghai Zhongxi Pharmaceutical Co., Ltd., priority 1999, dated 2003)
